In patent US20260242360A1, “Novel Compound, and Pharmaceutical Composition for Prevention or Treatment of Cancer or Tumors Comprising Same” (Daewoong Pharmaceutical Co., Ltd., priority 2023, published 2026):

Experiments:
Assay type in all cases: cell-based
[1] = test system: transcription factor TEAD; test: Activity inhibition test of transcription factor TEAD (ONE-Glo luciferase assay, Hippo Pathway TEAD reporter-MCF7 cell line); settings: Homo sapiens; TEAD Reporter-MCF7 cells, 24 hours treatment, luciferase luminescence
Description: The transcription factor TEAD activity of the compounds prepared in Examples was measured by the ONE-Glo™ Luciferase assay (Promega, Catalog #E6110) method using the Hippo Pathway TEAD reporter-MCF7 recombinant cell line (BPS Bioscience, Catalog #60618).
Specifically, the TEAD Reporter-MCF7 cell line contains the firefly luciferase gene whose expression is regulated under the control of TEAD response elements in the MCF7, which is a human breast cancer cell line. In the cell line, a non-phosphorylated YAP/TAZ exists in the nucleus in a non-stressed condition, which continuously induces expression of the luciferase reporter.
TEAD Reporter-MCF7 cells were prepared in 100 μL of cell culture medium (MEM medium, 10% FBS, 1% P/S, 400 μg/mL Geneticin, 1% […], 1 mM NA pyruvate, 10 μg/mL Insulin) in a white clear bottom 96-well microplate. The prepared plate was incubated in a 5% CO2 incubator at 37° C. for 24 hours, and then the previously prepared compounds of Examples were finally treated at concentrations of 0.0005, 0.005, 0.05, 0.5 and 5 μM, which were repeated three times for all treatment solutions. The plates treated with the compounds of Examples were incubated in a 5% CO2 incubator at 37° C. for 24 hours. 100 μL/well of the substrate aqueous solution containing luciferin was added to a white clear-bottom 96 well microplate, thereby initiating an enzyme reaction. The reaction was performed at room temperature for 5 minutes, and the luminescence (integration time 1000 ms) was measured using a Flexstation3 multi-mode microplate reader. In accordance with the instructions for the ONE-Glo™ Luciferase Assay, the luciferase enzyme activity, which represents the activity of the transcription factor TEAD, was measured by a chemiluminescence method, and the inhibitory activity of the compound according to the present disclosure was calculated. The results of each compound were analyzed using Microsoft Excel, and the IC50 values were calculated by GraphPad Prism software.

NCI-H226 cells = test: Cell growth inhibition test (CellTiter-Glo), NCI-H226; settings: Homo sapiens, NCI-H226 cell line
Description: (§1) The cell growth for the compounds prepared in Examples was measured by CellTiter-Glo® Luminescednt Cell Viability (Promega, Catalog #G7571) method using NCI-H226 (addexbio), NCI-H28 (Korea Cell Line Bank) cell lines. This evaluation method is a method in which when luciferase enzyme is activated by ATP flowing out from living cells, it reacts with a luciferin substrate, and the enzyme activity at this time is measured to confirm cell viability.
(§2) Specifically, NCI-H226, and NCI-H28 cells were prepared in 100 μL of cell culture medium (RPMI medium, 10% FBS, 1% P/S, 4.5 g/L D-Glucose, 2.383 g/L HEPES Buffer, L-Glutamine, 1.5 g/L Sodium Bicarbonate, 110 mg/L Sodium pyruvate) in a white clear bottom 96-well microplate. The prepared plate was incubated in a 5% CO2 incubator at 37° C. for 24 hours, and then the previously prepared compounds of Examples were finally treated at concentrations of 0.0005, 0.005, 0.05, 0.5 and 5 μM, which was repeated three times for all treatment solutions.
(§3) The plates treated with the compounds of Examples were incubated in a 5% CO2 incubator at 37° C. 100 μL/well of the substrate aqueous solution containing luciferin was added to a white clear-bottom 96 well microplate, thereby initiating an enzyme reaction. The reaction was performed at room temperature in the dark for 10 minutes, and the luminescence was measured using a Flexstation3 multi-mode microplate reader. In accordance with the instructions for the CellTiter-Glo™ Luminescednt Cell Viability, the luciferase enzyme activity, which represents the amount of ATP, was measured by a chemiluminescence method, and the inhibitory activity of the compounds according to the present disclosure was calculated. The results of each compound were analyzed using Microsoft Excel, and the IC50 values were calculated using GraphPad Prism software.

NCI-H28 cells = test: Cell growth inhibition test (CellTiter-Glo), NCI-H28; settings: Homo sapiens, NCI-H28 cell line
Description: as §1, §2, §3

Structure (SMILES) | IC50 [1] | IC50 (NCI-H226 cells) | IC50 (NCI-H28 cells)
Cn1cnc(-c2cc(NS(C)(=O)=O)cc3cc(-c4ccc(Cl)cc4)[nH]c23)c1 [Example 21, N-(2-(4-chlorophenyl)-7-(1-methyl-1H-imidazol-4-yl)-1H-indol-5-yl)methanesulfonamide] | 236 nM | > 5000 nM | 2220 nM
C=CC(=O)Nc1cc(-c2cn(C)cn2)c2[nH]c(C3=CCCCC3)cc2c1 [Example 13, N-(2-cyclohexenyl-7-(1-methyl-1H-imidazol-4-yl)-1H-indol-5-yl)acrylamide] | 46 nM | 22.3 nM | 3500 nM
C=CC(=O)Nc1cc(-c2ccccn2)c2[nH]c(-c3ccc(F)cc3)cc2c1 [Example 31, N-(2-(4-fluorophenyl)-7-(pyridin-2-yl)-1H-indol-5-yl)acrylamide] | 30 nM | 12 nM | 1770 nM
C=CC(=O)Nc1cc(-c2cn(C)cn2)c2[nH]c(-c3cc(F)c(F)c(F)c3)cc2c1 [Example 6, N-(7-(1-methyl-1H-imidazol-4-yl)-2-(3,4,5-trifluorophenyl)-1H-indol-5-yl)acrylamide] | 5.9 nM | 4.4 nM | 4000 nM
C=CC(=O)Nc1cc(-c2cn(C)cn2)c2[nH]c(-c3ccc(Cl)cc3F)cc2c1 [Example 12, N-(2-(4-chloro-2-fluorophenyl)-7-(1-methyl-1H-imidazol-4-yl)-1H-indol-5-yl)acrylamide] | 79 nM | 22.5 nM | 2800 nM
C=CC(=O)Nc1cc(-c2cn(C)cn2)c2[nH]c(-c3ccc(F)cc3F)cc2c1 [Example 5, N-(2-(2,4-difluorophenyl)-7-(1-methyl-1H-imidazol-4-yl)-1H-indol-5-yl)acrylamide] | 6.4 nM | 4.2 nM | > 5000 nM
C=CC(=O)Nc1cc(-c2ccn(C)n2)c2[nH]c(-c3ccc(F)cc3F)cc2c1 [Example 33, N-(2-(2,4-difluorophenyl)-7-(1-methyl-1H-pyrazol-3-yl)-1H-indol-5-yl)acrylamide] | 51 nM | 24.3 nM | 4910 nM
Cn1cnc(-c2cc(C(=O)O)cc3cc(-c4ccc(F)cc4)[nH]c23)c1 [Example 35, 2-(4-fluorophenyl)-7-(1-methyl-1H-imidazol-4-yl)-1H-indole-5-carboxylic acid] | 100 nM | 137 nM | > 5000 nM
C=CC(=O)Nc1cc(-c2cn(C)cn2)c2[nH]c(-c3ccc(F)c(F)c3)cc2c1 [Example 9, N-(2-(3,4-difluorophenyl)-7-(1-methyl-1H-imidazol-4-yl)-1H-indol-5-yl)acrylamide] | 20 nM | 5.3 nM | 2950 nM
C=CC(=O)Nc1cc(-c2cn(C)cn2)c2[nH]c(-c3ccc(C(F)(F)F)cc3)cc2c1 [Example 2, N-(7-(1-methyl-1H-imidazol-4-yl)-2-(4-(trifluoromethyl)phenyl)-1H-indol-5-yl)acrylamide] | 39 nM | 65 nM | 4140 nM
C=CC(=O)Nc1cc(-c2cn(C)cn2)c2[nH]c(-c3ccccc3)cc2c1 [Example 4, N-(7-(1-methyl-1H-imidazol-4-yl)-2-phenyl-1H-indol-5-yl)acrylamide] | 30 nM | 10 nM | 4400 nM
Cn1cnc(-c2cc(NS(C)(=O)=O)cc3cc(-c4cccc(C(F)(F)F)c4)[nH]c23)c1 [Example 19, N-(7-(1-methyl-1H-imidazol-4-yl)-2-(3-(trifluoromethyl)phenyl)-1H-indol-5-yl)methanesulfonamide] | 190 nM | 210 nM | 438 nM
C=CC(=O)Nc1cc(-c2ccn(C)n2)c2[nH]c(-c3ccc(Cl)cc3)cc2c1 [Example 28, N-(2-(4-chlorophenyl)-7-(1-methyl-1H-pyrazol-3-yl)-1H-indol-5-yl)acrylamide] | 15 nM | 8.4 nM | 2300 nM
C=CC(=O)Nc1cc(-c2ccn(C)n2)c2[nH]c(-c3ccc(F)cc3)cc2c1 [Example 32, N-(2-(4-fluorophenyl)-7-(1-methyl-1H-pyrazol-3-yl)-1H-indol-5-yl)acrylamide] | 23 nM | 7.6 nM | 1360 nM
C=CC(=O)Nc1cc(-c2cn(C)cn2)c2[nH]c(-c3ccc(Cl)c(Cl)c3)cc2c1 [Example 8, N-(2-(3,4-dichlorophenyl)-7-(1-methyl-1H-imidazol-4-yl)-1H-indol-5-yl)acrylamide] | 110 nM | 57 nM | 950 nM
C=CC(=O)Nc1cc(-c2cn(C)cn2)c2[nH]c(-c3ccc(Cl)cc3)cc2c1 [Example 1, N-(2-(4-chlorophenyl)-7-(1-methyl-1H-imidazol-4-yl)-1H-indol-5-yl)acrylamide] | 9.4 nM | 21 nM | > 5000 nM

Results, then the compound that gave them:

IC50 [1] | IC50 (NCI-H226 cells) | IC50 (NCI-H28 cells) | Structure (SMILES)
97 nM | 4.5 nM | 2080 nM | C=CC(=O)Nc1cc(-c2cn(C)cn2)c2[nH]c(-c3cccc(F)c3)cc2c1 [Example 42, N-(2-(3-fluorophenyl)-7-(1-methyl-1H-imidazol-4-yl)-1H-indol-5-yl)acrylamide]
90 nM | 79 nM | 1360 nM | C=CC(=O)Nc1cc(-c2cn(C)cn2)c2[nH]c(-c3cc(F)c(Cl)c(F)c3)cc2c1 [Example 46, N-(2-(4-chloro-3,5-difluorophenyl)-7-(1-methyl-1H-imidazol-4-yl)-1H-indol-5-yl)acrylamide]
37 nM | 21.7 nM | 1900 nM | C=CC(=O)Nc1cc(-c2cn(C)cn2)c2[nH]c(-c3ccc(F)c(Cl)c3)cc2c1 [Example 44, N-(2-(3-chloro-4-fluorophenyl)-7-(1-methyl-1H-imidazol-4-yl)-1H-indol-5-yl)acrylamide]
54 nM | 7.8 nM | > 5000 nM | Cn1cnc(-c2cc(C(=O)O)cc3cc(-c4ccc(F)c(F)c4)[nH]c23)c1 [Example 43, 2-(3,4-difluorophenyl)-7-(1-methyl-1H-imidazol-4-yl)-1H-indole-5-carboxylic acid]
26 nM | 134 nM | 759 nM | Cn1cnc(-c2cc(C(=O)O)cc3cc(-c4ccc(Cl)cc4)[nH]c23)c1 [Example 37, 2-(4-chlorophenyl)-7-(1-methyl-1H-imidazol-4-yl)-1H-indole-5-carboxylic acid]
27 nM | 15.4 nM | > 5000 nM | C=CC(=O)Nc1cc(-c2cn(CC)cn2)c2[nH]c(-c3cc(F)c(F)c(F)c3)cc2c1 [Example 50, N-(7-(1-ethyl-1H-imidazol-4-yl)-2-(3,4,5-trifluorophenyl)-1H-indol-5-yl)acrylamide]
48 nM | 7.6 nM | 2540 nM | C=CC(=O)Nc1cc(-c2cn(CC)cn2)c2[nH]c(-c3ccc(F)cc3)cc2c1 [Example 51, N-(7-(1-ethyl-1H-imidazol-4-yl)-2-(4-fluorophenyl)-1H-indol-5-yl)acrylamide]
36 nM | 21.9 nM | > 5000 nM | Cn1cnc(-c2cc(C(=O)O)cc3cc(-c4ccc(Cl)c(F)c4)[nH]c23)c1 [Example 39, 2-(4-chloro-3-fluorophenyl)-7-(1-methyl-1H-imidazol-4-yl)-1H-indole-5-carboxylic acid]
346 nM | 58 nM | 868 nM | C=CC(=O)Nc1cc(-c2cn(C)cn2)c2[nH]c(-c3ccc(Br)cc3)cc2c1 [Example 52, N-(2-(4-bromophenyl)-7-(1-methyl-1H-imidazol-4-yl)-1H-indole-5-yl)acrylamide]
